Test results published in patent publication US20260042731A1, “(2,4-DICHLOROPHENOXY)ACETIC ACID ANALOGS” (CORTEVA AGRISCIENCE LLC, priority 2022, published 2026).
Like-named read-outs stand apart in the source and are kept apart here.

Columns and labels:
[1] = tested on: Amaranthus rudis (AMATA), tall water hemp; assay: Postemergence herbicide evaluation, growth of Amaranthus rudis (AMATA); type: in vivo; details: Amaranthus tuberculatus, post-emergence, percent reduction in plant size relative to untreated control, read-out: Ave. AMATA; for pest or weed control at 280 g/ha: 280 g ae/ha; for pest or weed control at 560 g/ha: 560 g ae/ha
[2] = tested on: Ambrosia artemisiifolia (AMBEL), common ragweed; assay: Postemergence herbicide evaluation, growth of Ambrosia artemisiifolia (AMBEL); type: in vivo; details: Ambrosia artemisiifolia, post-emergence, percent reduction in plant size relative to untreated control, read-out: AVE. AMBEL; for pest or weed control at 280 g/ha: 280 g ae/ha; for pest or weed control at 560 g/ha: 560 g ae/ha
[3] = tested on: Abutilon theophrasti (ABUTH), velvetleaf; assay: Postemergence herbicide evaluation, growth of Abutilon theophrasti (ABUTH); type: in vivo; details: Abutilon theophrasti, post-emergence, percent reduction in plant size relative to untreated control, read-out: AVE. ABUTH; for pest or weed control at 280 g/ha: 280 g ae/ha; for pest or weed control at 560 g/ha: 560 g ae/ha
[4] = tested on: Chenopodium album (CHEAL), common lambsquarters; assay: Postemergence herbicide evaluation, growth of Chenopodium album (CHEAL); type: in vivo; details: Chenopodium album, post-emergence, percent reduction in plant size relative to untreated control, read-out: Ave. CHEAL; for pest or weed control at 280 g/ha: 280 g ae/ha; for pest or weed control at 560 g/ha: 560 g ae/ha
[5] = tested on: glyphosate resistant Conyza canadensis (L.) (ERICA), horseweed; assay: Postemergence herbicide evaluation, growth of Conyza canadensis (ERICA); type: in vivo; details: Erigeron canadensis, post-emergence, percent reduction in plant size relative to untreated control, read-out: Ave. ERICA; for pest or weed control at 280 g/ha: 280 g ae/ha; for pest or weed control at 560 g/ha: 560 g ae/ha
[6] = Volatility of compounds measured by thermogravimetric analysis (TGA); type: physicochemical
Corn (ZEAMX) = assay: Greenhouse post-emergence mixture trials, percent visual control; type: in vivo; details: ZEAMX, 21 DAA
[7] = tested on: Common Lambsquarters (CHEAL); assay: as above; type: in vivo; details: CHEAL, 21 DAA; for pest or weed control at 560 g/ha / pest or weed control at 1120 g/ha: Chenopodium album, post-emergence, 504 h, no mixing partner; for pest or weed control at 1120 g/ha: read-out: % Control
Velvetleaf (ABUTH) = assay: as above; type: in vivo; details: ABUTH, 21 DAA; for pest or weed control at 560 g/ha / pest or weed control at 1120 g/ha: Abutilon theophrasti, post-emergence, 504 h, no mixing partner; for pest or weed control at 1120 g/ha: read-out: % Control
[8] = tested on: weeds (ABUTH, AMATA, AMBEL, CHEAL, ERICA); assay: Postemergence herbicide evaluation, overall average % weed control across ABUTH, AMATA, AMBEL, CHEAL, ERICA; type: in vivo; details: post-emergence, average over the five weeds, read-out: Overall Ave % Weed Control; for pest or weed control at 280 g/ha: 280 g ae/ha; for pest or weed control at 560 g/ha: 560 g ae/ha
[9] = Trial Bridge 2, compound 560 g ae/ha + Saflufenacil 25 g ai or ae/ha
[10] = Trial Bridge 2, compound 560 g ae/ha + Saflufenacil 75 g ai or ae/ha
[11] = Trial Bridge 2, compound 560 g ae/ha + Trifludimoxazin 12.5 g ai or ae/ha
[12] = Trial Bridge 2, compound 560 g ae/ha + Trifludimoxazin 50 g ai or ae/ha
[13] = Trial Bridge 2, compound 1120 g ae/ha + Saflufenacil 25 g ai or ae/ha
[14] = Trial Bridge 2, compound 1120 g ae/ha + Saflufenacil 75 g ai or ae/ha
[15] = Trial Bridge 2, compound 1120 g ae/ha + Trifludimoxazin 50 g ai or ae/ha
[16] = Trial Bridge 2, compound 560 g ae/ha
[17] = Trial Bridge 2, compound 1120 g ae/ha
[18] = Trial Bridge 1, compound 560 g ae/ha + Glufosinate 600 g ai or ae/ha

O=C(COc1ccc(Cl)cc1Cl)NNC(=O)c1ccccc1 [Compound D10]
pest or weed control at 280 g/ha ([1]; 168 h, 7 DAA): 68%
pest or weed control at 560 g/ha ([1]; 168 h, 7 DAA): 80%
pest or weed control at 280 g/ha ([1]; 336 h, 14 DAA): 94%
pest or weed control at 560 g/ha ([1]; 336 h, 14 DAA): 96%
pest or weed control at 280 g/ha ([1]; 504 h, 21 DAA): 85%
pest or weed control at 560 g/ha ([1]; 504 h, 21 DAA): 85%
pest or weed control at 280 g/ha ([2]; 168 h, 7 DAA): 73%
pest or weed control at 560 g/ha ([2]; 168 h, 7 DAA): 83%
pest or weed control at 280 g/ha ([2]; 336 h, 14 DAA): 91%
pest or weed control at 560 g/ha ([2]; 336 h, 14 DAA): 97%
pest or weed control at 280 g/ha ([2]; 504 h, 21 DAA): 93%
pest or weed control at 560 g/ha ([2]; 504 h, 21 DAA): 100%
pest or weed control at 280 g/ha ([3]; 168 h, 7 DAA): 88%
pest or weed control at 560 g/ha ([3]; 168 h, 7 DAA): 83%
pest or weed control at 280 g/ha ([3]; 336 h, 14 DAA): 85%
pest or weed control at 560 g/ha ([3]; 336 h, 14 DAA): 96%
pest or weed control at 280 g/ha ([3]; 504 h, 21 DAA): 91%
pest or weed control at 560 g/ha ([3]; 504 h, 21 DAA): 100%
pest or weed control at 280 g/ha ([4]; 168 h, 7 DAA): 63%
pest or weed control at 560 g/ha ([4]; 168 h, 7 DAA): 65%
pest or weed control at 280 g/ha ([4]; 336 h, 14 DAA): 68%
pest or weed control at 560 g/ha ([4]; 336 h, 14 DAA): 83%
pest or weed control at 280 g/ha ([4]; 504 h, 21 DAA): 73%
pest or weed control at 560 g/ha ([4]; 504 h, 21 DAA): 85%
pest or weed control at 280 g/ha ([5]; 168 h, 7 DAA): 63%
pest or weed control at 560 g/ha ([5]; 168 h, 7 DAA): 65%
pest or weed control at 280 g/ha ([5]; 336 h, 14 DAA): 83%
pest or weed control at 560 g/ha ([5]; 336 h, 14 DAA): 88%
pest or weed control at 280 g/ha ([5]; 504 h, 21 DAA): 93%
pest or weed control at 560 g/ha ([5]; 504 h, 21 DAA): 99%
TGA Data (rate of weight loss, volatility) [6]: 0.3 µg/min
% Control (Corn (ZEAMX); Trial Bridge 1, compound 560 g ae/ha + Glyphosate 1120 g ai or ae/ha): 75%
% Control (Corn (ZEAMX); Trial Bridge 1, compound 560 g ae/ha + Glyphosate 1120 g ai or ae/ha, single replicate): 70%
% Control (Corn (ZEAMX); Trial Bridge 1, compound 1120 g ae/ha, no mixing partner, single replicate): 10%
plant injury at 1120 g/ha (Corn (ZEAMX); Zea mays, post-emergence, 504 h, Trial Bridge 1, compound 1120 g ae/ha, no mixing partner, single replicate): 10%
plant injury at 560 g/ha (Corn (ZEAMX); Zea mays, post-emergence, 504 h, compound 560 g ae/ha, no mixing partner, Trial Bridge 3): 5%
% Control [7, 9]: 100%
% Control [7, 10]: 100%
% Control [7, 11]: 100%
% Control [7, 12]: 100%
% Control [7, 13]: 100%
% Control [7, 14]: 100%
% Control ([7]; Trial Bridge 2, compound 1120 g ae/ha + Trifludimoxazin 12.5 g ai or ae/ha): 100%
% Control [7, 15]: 100%
% Control ([7]; Trial Bridge 3, compound 560 g ae/ha + Sulfentrazone 130 g ai/ha): 100%
% Control ([7]; Trial Bridge 3, compound 560 g ae/ha + Sulfentrazone 347 g ai/ha): 100%
% Control ([7]; Trial Bridge 3, compound 1120 g ae/ha + Sulfentrazone 130 g ai/ha): 100%
% Control ([7]; Trial Bridge 3, compound 1120 g ae/ha + Sulfentrazone 347 g ai/ha): 100%
pest or weed control at 560 g/ha [7, 16]: 95%
pest or weed control at 1120 g/ha [7, 17]: 95%
pest or weed control at 560 g/ha ([7]; Trial Bridge 3, compound 560 g ae/ha): 95%
pest or weed control at 1120 g/ha ([7]; Trial Bridge 3, compound 1120 g ae/ha): 100%
pest or weed control at 560 g/ha ([7]; Trial Bridge 1, compound 560 g ae/ha): 95%
pest or weed control at 1120 g/ha ([7]; Trial Bridge 1, compound 1120 g ae/ha): 95%
% Control [7, 18]: 100%
% Control ([7]; Trial Bridge 1, compound 560 g ae/ha + Mesotrione 150 g ai or ae/ha): 100%
% Control ([7]; Trial Bridge 1, compound 1120 g ae/ha + Arylex 5 g ai or ae/ha): 95%
% Control ([7]; Trial Bridge 1, compound 1120 g ae/ha + Mesotrione 150 g ai or ae/ha): 100%
% Control (Velvetleaf (ABUTH); compound 1120 g ae/ha + Sulfentrazone 130 g ai/ha, Trial Bridge 3): 100%
% Control (Velvetleaf (ABUTH); compound 1120 g ae/ha + Sulfentrazone 347 g ai/ha, Trial Bridge 3): 100%
pest or weed control at 560 g/ha (Velvetleaf (ABUTH); compound 560 g ae/ha, Trial Bridge 3): 85%
pest or weed control at 1120 g/ha (Velvetleaf (ABUTH); compound 1120 g ae/ha, Trial Bridge 3): 95%
pest or weed control at 560 g/ha (Velvetleaf (ABUTH); Trial Bridge 1 Trt 2, D10 560 g ae/ha): 99%
pest or weed control at 1120 g/ha (Velvetleaf (ABUTH); Trial Bridge 1 Trt 3, D10 1120 g ae/ha): 100%
pest or weed control at 560 g/ha (Velvetleaf (ABUTH); [16]): 100%
pest or weed control at 1120 g/ha (Velvetleaf (ABUTH); [17]): 100%
% Control (Velvetleaf (ABUTH); [18]): 100%
% Control (Velvetleaf (ABUTH); Trial Bridge 1 Trt 5, D10 560 g ae/ha + diclosulam 35 g ai or ae/ha): 100%
% Control (Velvetleaf (ABUTH); Trial Bridge 1 Trt 6, D10 1120 g ae/ha + diclosulam 35 g ai or ae/ha): 100%
% Control (Velvetleaf (ABUTH); Trial Bridge 1 Trt 8, D10 560 g ae/ha + Arylex 5 g ai or ae/ha): 100%
% Control (Velvetleaf (ABUTH); Trial Bridge 1 Trt 9, D10 1120 g ae/ha + Arylex 5 g ai or ae/ha): 100%
% Control (Velvetleaf (ABUTH); Trial Bridge 1 Trt 11, D10 560 g ae/ha + Mesotrione 150 g ai or ae/ha): 100%
% Control (Velvetleaf (ABUTH); Trial Bridge 1 Trt 12, D10 1120 g ae/ha + Mesotrione 150 g ai or ae/ha): 100%
% Control (Velvetleaf (ABUTH); Trial Bridge 1 Trt 14, D10 560 g ae/ha + Glyphosate 1120 g ai or ae/ha): 100%
% Control (Velvetleaf (ABUTH); Trial Bridge 1 Trt 15, D10 1120 g ae/ha + Glyphosate 1120 g ai or ae/ha): 100%
% Control (Velvetleaf (ABUTH); [9]): 100%
% Control (Velvetleaf (ABUTH); [10]): 100%
% Control (Velvetleaf (ABUTH); [11]): 100%
% Control (Velvetleaf (ABUTH); [12]): 100%
% Control (Velvetleaf (ABUTH); [13]): 100%
% Control (Velvetleaf (ABUTH); [14]): 100%
% Control (Velvetleaf (ABUTH); [15]): 100%
pest or weed control at 280 g/ha ([8]; 168 h, 7 DAA): 71%
pest or weed control at 560 g/ha ([8]; 168 h, 7 DAA): 75%
pest or weed control at 280 g/ha ([8]; 336 h, 14 DAA): 84%
pest or weed control at 560 g/ha ([8]; 336 h, 14 DAA): 92%
pest or weed control at 280 g/ha ([8]; 504 h, 21 DAA): 87%
pest or weed control at 560 g/ha ([8]; 504 h, 21 DAA): 94%
